Measured values reported in PMC10523529 (Proceedings of the National Academy of Sciences of the …, 2023).

Biological target: T1, TAK1 (TAK1-TAB1 fusion protein) (Homo sapiens, UniProt O43318)
T1 sequence (O43318 15-303): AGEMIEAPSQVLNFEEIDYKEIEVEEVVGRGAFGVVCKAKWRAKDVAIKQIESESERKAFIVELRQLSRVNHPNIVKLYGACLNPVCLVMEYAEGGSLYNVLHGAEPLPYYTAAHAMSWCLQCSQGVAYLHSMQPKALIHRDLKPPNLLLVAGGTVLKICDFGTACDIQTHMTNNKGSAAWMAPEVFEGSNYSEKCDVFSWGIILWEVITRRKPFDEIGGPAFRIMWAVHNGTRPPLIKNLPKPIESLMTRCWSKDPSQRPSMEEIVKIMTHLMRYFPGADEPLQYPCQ
T1 sequence (Q15750 468-504 partner): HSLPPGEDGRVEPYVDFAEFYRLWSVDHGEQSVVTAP
Assay: SPR
Type: binding

COc1cc(Nc2ncc(F)c(Nc3ccc4c(n3)N(COP(=O)(O)O)C(=O)C(C)(C)O4)n2)cc(OC)c1OC [R788]
Kd: 12.1 µM
